What was measured:
Assay in all cases: In vitro MMP inhibition analysis (fluorogenic peptide substrate cleavage), Ki
Type in all cases: biochemical
Conditions in all cases: Table 2
Human recombinant MMP-9 = target: T1, Human recombinant MMP-9 (Homo sapiens, UniProt P14780)
T1 construct: made in house; host or cells: MMP-9-transfected HT1080 cells (spent media)
In short: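 Recombinant MMP-9 purified from transfected HT1080 cell media, activated with APMA, trypsin or recombinant MMP-3, assayed in Tris buffer pH 7.5 with CaCl2 and 4 μM fluorogenic MCA/Dpa peptide, 1 h at room temperature (ex 330/em 420 nm). Ki from Morrison-equation regression of velocity; substrate at or below Km, uncorrected.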

Human recombinant MMP-1 = target: T2, Human recombinant MMP-1 (Homo sapiens, UniProt P03956)
T2 construct: made in house; host or cells: MMP-1-transfected HT-1080 cells (spent media)
T2 sequence (P03956 100-469): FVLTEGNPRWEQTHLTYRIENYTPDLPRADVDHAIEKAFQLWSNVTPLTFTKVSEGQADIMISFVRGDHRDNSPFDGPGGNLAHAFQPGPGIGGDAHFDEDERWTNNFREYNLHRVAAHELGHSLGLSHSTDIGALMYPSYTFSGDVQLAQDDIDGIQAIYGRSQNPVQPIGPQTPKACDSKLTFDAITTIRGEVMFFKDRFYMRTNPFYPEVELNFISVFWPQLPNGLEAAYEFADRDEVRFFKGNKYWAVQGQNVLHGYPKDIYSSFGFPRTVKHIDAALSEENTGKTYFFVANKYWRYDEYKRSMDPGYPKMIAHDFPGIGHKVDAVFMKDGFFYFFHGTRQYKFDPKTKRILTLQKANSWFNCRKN
In short: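 APMA- or trypsin-activated recombinant human MMP-1 (purified from transfected HT-1080 medium) with 4 μM MCA/Dpa quenched fluorogenic peptide, 1 h at room temperature in Tris/NaCl/CaCl2 buffer pH 7.5; fluorescence ex 330/em 420 nm. Ki from Morrison-equation fit of rates, substrate at or below Km, uncorrected.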

Human recombinant MMP-14 = target: T3, Human recombinant MMP-14 (Homo sapiens, UniProt P50281)
T3 construct: The catalytic domain enzyme was expressed in E. coli inclusion bodies, solubilized in urea; made in house
In short: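 Refolded catalytic domain of MMP-14 expressed in E. coli, activated with APMA or trypsin, incubated 1 h at room temperature with 4 μM MCA-peptide substrate in Tris buffer pH 7.5 with CaCl2. Cleavage rate followed by fluorescence (ex 330/em 420 nm). Ki from Morrison-equation fit; substrate at or below Km, so no substrate correction.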

T1 sequence (P14780 107-707 limits assumed): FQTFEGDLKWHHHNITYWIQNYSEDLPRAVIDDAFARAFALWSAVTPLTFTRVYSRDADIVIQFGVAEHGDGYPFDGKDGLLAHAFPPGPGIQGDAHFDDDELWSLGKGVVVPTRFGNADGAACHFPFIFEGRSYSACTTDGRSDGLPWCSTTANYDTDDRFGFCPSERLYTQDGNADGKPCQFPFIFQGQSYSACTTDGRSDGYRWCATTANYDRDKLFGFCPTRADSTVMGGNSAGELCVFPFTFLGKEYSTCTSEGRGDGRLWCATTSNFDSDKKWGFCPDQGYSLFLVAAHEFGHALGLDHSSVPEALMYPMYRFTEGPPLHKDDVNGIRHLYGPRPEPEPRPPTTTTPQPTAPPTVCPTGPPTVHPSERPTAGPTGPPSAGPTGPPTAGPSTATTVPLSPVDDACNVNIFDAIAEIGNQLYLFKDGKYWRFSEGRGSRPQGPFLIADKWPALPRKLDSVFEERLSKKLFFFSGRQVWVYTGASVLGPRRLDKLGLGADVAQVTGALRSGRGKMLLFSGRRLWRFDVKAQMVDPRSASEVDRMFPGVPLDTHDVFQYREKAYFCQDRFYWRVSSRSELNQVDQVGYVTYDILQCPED

Row | Structure (SMILES) | Ki (Human recombinant MMP-9) | Ki (Human recombinant MMP-1) | Ki (Human recombinant MMP-14)
1 | COCCO[C@H]1CC[C@](C(=O)NO)(S(=O)(=O)c2ccc(-c3cnc(CCC(F)(F)C(F)(F)F)cn3)cc2)CC1 [Example 187] | 0.16 nM | 7020 nM | 625 nM
2 | O=C(NO)C1(S(=O)(=O)c2ccc(-c3ccc(OCC(F)(F)C(F)F)c(C(F)(F)F)c3)cc2)CCOCC1 [Example 85] | 248 nM | > 10000 nM | 2800 nM
3 | O=C(NO)C1(S(=O)(=O)c2ccc(-c3cnc(OCCC4CC4)cn3)cc2)CCOCC1 [Example 172] | 0.06 nM | 1360 nM | 222 nM
4 | O=C(NO)C1(S(=O)(=O)c2ccc(-c3ccc(F)c(C(F)(F)F)c3)cc2)CCOCC1 [Example 84] | 97.1 nM | > 10000 nM | 989 nM
5 | COc1ccc(Cc2cnc(-c3ccc(S(=O)(=O)C4(C(=O)NO)CCOCC4)cc3)cn2)cc1 [Example 182] | 246 nM | > 10000 nM | > 10000 nM
6 | CCCc1ccc(-c2ccc(S(=O)(=O)C3(C(=O)NO)CCOCC3)cc2)cc1 [Example 87] | 0.176 nM | 1110 nM | 62.3 nM
7 | CO[C@H]1CC[C@](C(=O)NO)(S(=O)(=O)c2ccc(-c3cnc(CCC(F)(F)C(F)(F)F)cn3)cc2)CC1 [Example 183] | 0.14 nM | > 10000 nM | 798 nM
8 | COC(=O)c1ccc2cc(-c3ccc(S(=O)(=O)C4(C(=O)NO)CCOCC4)cc3)ccc2c1 [Example 181] | 0.264 nM | 465 nM | 623 nM
9 | O=C1c2ccccc2C(=O)N1CCCOc1cccc(-c2ccc(S(=O)(=O)C3(C(=O)NO)CCOCC3)cc2)c1 [Example 196] | 430 nM | > 10000 nM | > 10000 nM
10 | O=C(NCC(F)(F)C(F)(F)F)c1cnc(-c2ccc(S(=O)(=O)C3(C(=O)NO)CCOCC3)cc2)cn1 [Example 192] | 41.1 nM | 1540 nM | 5920 nM
11 | COCCN1CCC(C(=O)NO)(S(=O)(=O)c2ccc(-c3cnc(CCC(F)(F)F)cn3)cc2)CC1 [Example 214] | 2.05 nM | > 10000 nM | 6980 nM
12 | CC(C)COc1cnc(-c2ccc(S(=O)(=O)C3(C(=O)NO)CCOCC3)cc2)cn1 [Example 170] | 0.08 nM | 693 nM | 234 nM
13 | COCCN1CCC(C(=O)NO)(S(=O)(=O)c2ccc(-c3cnc(OCCC4CCCC4)cn3)cc2)CC1 [Example 200] | 0.648 nM | > 10000 nM | 942 nM
14 | CCC(C)COc1ccc(-c2ccc(S(=O)(=O)C3(C(=O)NO)CCOCC3)cc2)cc1C(F)(F)F (stereo not drawn) [Example 92] | 106 nM | > 10000 nM | 7410 nM
15 | O=C(NO)C1(S(=O)(=O)c2ccc(-c3cnc(OCCCC(F)(F)F)cn3)cc2)CCOCC1 [Example 88] | 2.31 nM | 3520 nM | 539 nM
16 | CCCCc1cnc(-c2ccc(S(=O)(=O)C3(C(=O)NO)CCN(CCOC)CC3)cc2)cn1 [Example 206] | 1.8 nM | > 10000 nM | > 10000 nM
17 | COc1ccc(C(=O)c2cnc(-c3ccc(S(=O)(=O)C4(C(=O)NO)CCOCC4)cc3)cn2)cc1 [Example 179] | 38.6 nM | > 10000 nM | 218 nM
18 | O=C(N1CCOCC1)N1CCC(C(=O)NO)(S(=O)(=O)c2ccc(-c3ccc(CCC(F)(F)C(F)(F)F)cc3)cc2)CC1 [Example 171] | 0.62 nM | 6370 nM | 633 nM
19 | O=C(NO)C1(S(=O)(=O)c2ccc(-c3nc4ccccc4o3)cc2)CCOCC1 [Example 193] | 11.5 nM | 1490 nM | 96.7 nM
20 | O=C(NO)C1(S(=O)(=O)c2ccc(-c3ccc(CCC(F)(F)C(F)(F)F)cc3)cc2)CCS(=O)(=O)CC1 [Example 167] | 12.5 nM | > 10000 nM | 3590 nM
21 | O=C(NO)C1(S(=O)(=O)c2ccc(-c3ccc(C(F)(F)F)cc3F)cc2)CCOCC1 [Example 96] | 2.14 nM | 602 nM | 224 nM
22 | O=C(NO)C1(S(=O)(=O)c2ccc(-c3cnc(-n4cccc4)cn3)cc2)CCOCC1 [Example 94] | 3.4 nM | > 10000 nM | 2940 nM
23 | CC(C)N(C(=O)N1CCC(C(=O)NO)(S(=O)(=O)c2ccc(-c3ccc(CCC(F)(F)C(F)(F)F)cc3)cc2)CC1)C(C)C [Example 174] | 3.77 nM | > 10000 nM | 1180 nM
24 | Cc1nc(CCc2ccc(-c3ccc(S(=O)(=O)C4(C(=O)NO)CCOCC4)cc3)cc2)no1 [Example 219] | 9.25 nM | 1700 nM | 1760 nM
25 | CC(C)CCOc1ccc(-c2ccc(S(=O)(=O)C3(C(=O)NO)CCOCC3)cc2)cc1C(F)(F)F [Example 86] | 414 nM | > 10000 nM | > 10000 nM
26 | O=C(NO)C1(S(=O)(=O)c2ccc(-c3ccc(OC(F)(F)F)cc3)cc2)CCOCC1 [Example 80] | 0.622 nM | 577 nM | 89.1 nM
27 | COC/C(Cl)=C/c1cnc(-c2ccc(S(=O)(=O)C3(C(=O)NO)CCOCC3)cc2)cn1 [Example 165] | 267 nM | 8950 nM | 1110 nM

Now from value to molecule:

Row | Ki (Human recombinant MMP-9) | Ki (Human recombinant MMP-1) | Ki (Human recombinant MMP-14) | Structure (SMILES)
28 | 61.4 nM | 1140 nM | 7920 nM | CCCCNC(=O)c1ccc(-c2ccc(S(=O)(=O)C3(C(=O)NO)CCOCC3)cc2)nc1 [Example 203]
29 | 0.993 nM | 354 nM | 22.6 nM | Cc1ccc(-c2ccc(S(=O)(=O)C3(C(=O)NO)CCOCC3)cc2)nc1 [Example 81]
30 | 1.43 nM | 200 nM | 930 nM | O=C(NCC1CC1)c1cnc(-c2ccc(S(=O)(=O)C3(C(=O)NO)CCOCC3)cc2)cn1 [Example 191]
31 | 1.99 nM | 256 nM | 65.4 nM | O=C(NO)C1(S(=O)(=O)c2ccc(-c3ccc(C(F)(F)F)cn3)cc2)CCOCC1 [Example 82]
32 | 13.5 nM | 501 nM | 2050 nM | CC(C)CCNC(=O)c1cnc(-c2ccc(S(=O)(=O)C3(C(=O)NO)CCOCC3)cc2)cn1 [Example 185]
33 | 0.04 nM | 1200 nM | 111 nM | O=C(NO)C1(S(=O)(=O)c2ccc(-c3ccc(CCC(F)(F)F)cn3)cc2)CCOCC1 [Example 176]
34 | 28.4 nM | 552 nM | 5120 nM | O=C(NC1CCCC1)c1ccc(-c2ccc(S(=O)(=O)C3(C(=O)NO)CCOCC3)cc2)nc1 [Example 198]
35 | 11.8 nM | 751 nM | 6370 nM | CC(C)NC(=O)c1ccc(-c2ccc(S(=O)(=O)C3(C(=O)NO)CCOCC3)cc2)nc1 [Example 204]
36 | 4.86 nM | > 10000 nM | 4450 nM | CCNc1cnc(-c2ccc(S(=O)(=O)C3(C(=O)NO)CCOCC3)cc2)cn1 [Example 93]
37 | 32.3 nM | 1310 nM | 4700 nM | O=C(NCC1CCCCC1)c1cnc(-c2ccc(S(=O)(=O)C3(C(=O)NO)CCOCC3)cc2)cn1 [Example 190]
38 | 78 nM | 1380 nM | > 10000 nM | CC[C@@H](C)NC(=O)c1ccc(-c2ccc(S(=O)(=O)C3(C(=O)NO)CCOCC3)cc2)nc1 [Example 207]
39 | 0.14 nM | 1100 nM | 326 nM | O=C(NO)C1(S(=O)(=O)c2ccc(-c3cnc(OCC4CCC4)cn3)cc2)CCOCC1 [Example 178]
40 | 437 nM | > 10000 nM | > 10000 nM | O=C(Cc1ccc(-c2ccc(S(=O)(=O)C3(C(=O)NO)CCOCC3)cc2)nc1)N1CCCCC1 [Example 212]
